In experiment [1] the target is T1, Serine/threonine-protein kinase PLK4 (Homo sapiens) (UniProt O00444).
T1 sequence (whole entry): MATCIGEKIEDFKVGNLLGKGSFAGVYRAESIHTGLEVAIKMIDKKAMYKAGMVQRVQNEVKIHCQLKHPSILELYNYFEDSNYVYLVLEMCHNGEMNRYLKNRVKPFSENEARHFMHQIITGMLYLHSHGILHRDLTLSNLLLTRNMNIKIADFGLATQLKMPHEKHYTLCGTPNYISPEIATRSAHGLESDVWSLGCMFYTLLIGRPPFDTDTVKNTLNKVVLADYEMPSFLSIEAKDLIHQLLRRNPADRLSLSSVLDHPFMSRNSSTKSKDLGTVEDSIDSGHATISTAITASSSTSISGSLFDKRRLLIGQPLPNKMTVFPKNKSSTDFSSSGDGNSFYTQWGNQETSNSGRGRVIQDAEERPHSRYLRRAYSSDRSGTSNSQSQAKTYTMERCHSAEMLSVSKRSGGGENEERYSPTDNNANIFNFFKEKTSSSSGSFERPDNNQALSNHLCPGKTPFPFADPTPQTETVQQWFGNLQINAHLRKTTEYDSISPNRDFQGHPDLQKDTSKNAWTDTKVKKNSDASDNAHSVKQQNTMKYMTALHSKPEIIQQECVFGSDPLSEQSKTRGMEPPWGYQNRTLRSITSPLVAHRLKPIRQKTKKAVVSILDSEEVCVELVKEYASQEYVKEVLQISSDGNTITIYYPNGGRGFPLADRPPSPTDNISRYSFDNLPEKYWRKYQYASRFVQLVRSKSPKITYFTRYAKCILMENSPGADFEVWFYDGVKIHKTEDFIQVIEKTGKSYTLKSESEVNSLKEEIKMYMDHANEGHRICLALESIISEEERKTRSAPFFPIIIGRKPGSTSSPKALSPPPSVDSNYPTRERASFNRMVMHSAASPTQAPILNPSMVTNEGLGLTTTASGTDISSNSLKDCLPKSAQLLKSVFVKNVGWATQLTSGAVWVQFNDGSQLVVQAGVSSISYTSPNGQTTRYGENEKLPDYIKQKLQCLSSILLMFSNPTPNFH
Kind of experiment: Inhibition of human recombinant PLK4 at 15 nM related to control ULK1.

In experiment [2] the target is Transcription initiation factor TFIID subunit 1-like (Homo sapiens) (UniProt Q8IZX4). Briefly: Inhibition of human recombinant TAF1L at 15 nM related to control ULK1.
Sequence of Transcription initiation factor TFIID subunit 1-like (Homo sapiens) (Q8IZX4 whole entry): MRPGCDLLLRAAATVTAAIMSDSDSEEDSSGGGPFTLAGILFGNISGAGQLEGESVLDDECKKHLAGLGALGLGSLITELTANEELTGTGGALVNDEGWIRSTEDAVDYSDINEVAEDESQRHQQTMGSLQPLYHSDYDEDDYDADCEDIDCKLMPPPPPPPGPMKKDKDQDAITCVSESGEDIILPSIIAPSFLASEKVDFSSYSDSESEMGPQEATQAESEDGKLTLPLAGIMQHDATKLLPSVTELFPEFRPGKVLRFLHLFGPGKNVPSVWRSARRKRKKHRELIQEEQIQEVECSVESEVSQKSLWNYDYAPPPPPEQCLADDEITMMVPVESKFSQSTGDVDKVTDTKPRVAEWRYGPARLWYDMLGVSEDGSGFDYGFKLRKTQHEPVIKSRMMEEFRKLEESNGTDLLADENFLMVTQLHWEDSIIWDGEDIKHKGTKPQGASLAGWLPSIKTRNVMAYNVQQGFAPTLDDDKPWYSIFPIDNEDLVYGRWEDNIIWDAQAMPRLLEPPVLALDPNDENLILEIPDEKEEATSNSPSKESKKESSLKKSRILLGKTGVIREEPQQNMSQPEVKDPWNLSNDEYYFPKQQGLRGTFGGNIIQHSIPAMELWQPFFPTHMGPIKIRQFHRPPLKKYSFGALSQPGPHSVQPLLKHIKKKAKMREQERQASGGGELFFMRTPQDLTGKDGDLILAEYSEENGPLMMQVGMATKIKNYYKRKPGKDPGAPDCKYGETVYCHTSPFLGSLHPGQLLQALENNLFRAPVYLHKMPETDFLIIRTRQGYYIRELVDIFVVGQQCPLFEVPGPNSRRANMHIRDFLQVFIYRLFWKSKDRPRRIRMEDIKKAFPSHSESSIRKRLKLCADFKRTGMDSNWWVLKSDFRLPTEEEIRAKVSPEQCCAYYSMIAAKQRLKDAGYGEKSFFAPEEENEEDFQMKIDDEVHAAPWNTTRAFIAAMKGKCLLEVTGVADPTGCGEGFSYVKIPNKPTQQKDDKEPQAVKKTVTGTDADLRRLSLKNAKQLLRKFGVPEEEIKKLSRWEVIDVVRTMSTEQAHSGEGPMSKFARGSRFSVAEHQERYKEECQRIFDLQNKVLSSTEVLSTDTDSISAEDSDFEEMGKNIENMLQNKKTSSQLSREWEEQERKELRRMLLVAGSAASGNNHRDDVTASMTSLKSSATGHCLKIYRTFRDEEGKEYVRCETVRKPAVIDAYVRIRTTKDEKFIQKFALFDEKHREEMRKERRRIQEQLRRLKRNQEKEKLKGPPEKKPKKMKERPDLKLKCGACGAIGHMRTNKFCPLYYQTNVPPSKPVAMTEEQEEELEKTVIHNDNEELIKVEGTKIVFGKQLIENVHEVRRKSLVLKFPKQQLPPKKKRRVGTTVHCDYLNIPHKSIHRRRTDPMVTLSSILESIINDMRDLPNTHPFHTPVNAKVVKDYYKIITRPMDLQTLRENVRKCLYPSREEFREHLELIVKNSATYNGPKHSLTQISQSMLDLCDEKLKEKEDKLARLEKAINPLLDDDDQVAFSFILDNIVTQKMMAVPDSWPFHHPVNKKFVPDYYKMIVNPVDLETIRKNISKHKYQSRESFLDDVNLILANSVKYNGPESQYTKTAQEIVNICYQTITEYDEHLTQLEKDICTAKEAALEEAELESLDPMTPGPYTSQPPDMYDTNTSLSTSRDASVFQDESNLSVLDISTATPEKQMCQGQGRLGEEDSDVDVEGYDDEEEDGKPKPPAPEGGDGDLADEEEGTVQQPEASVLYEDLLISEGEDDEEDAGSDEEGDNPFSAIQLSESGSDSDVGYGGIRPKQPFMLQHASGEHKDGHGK
Experiment [3] addresses Angiopoietin-1 receptor (Homo sapiens) (UniProt Q02763). Kind of experiment: Inhibition of human recombinant Tie2 at 40 nM related to control ULK1.
In experiment [4] the target is Leukocyte tyrosine kinase receptor (Homo sapiens) (UniProt P29376). Briefly: Inhibition of human recombinant LTK at 40 nM in presence of ATP by radiometric assay relative to control.
In experiment [5] the target is Serine/threonine-protein kinase Chk2 (Homo sapiens) (UniProt O96017). Briefly: Inhibition of human recombinant CHK2 at 500 nM related to control ULK1.
Sequence of Serine/threonine-protein kinase Chk2 (Homo sapiens) (O96017 whole entry): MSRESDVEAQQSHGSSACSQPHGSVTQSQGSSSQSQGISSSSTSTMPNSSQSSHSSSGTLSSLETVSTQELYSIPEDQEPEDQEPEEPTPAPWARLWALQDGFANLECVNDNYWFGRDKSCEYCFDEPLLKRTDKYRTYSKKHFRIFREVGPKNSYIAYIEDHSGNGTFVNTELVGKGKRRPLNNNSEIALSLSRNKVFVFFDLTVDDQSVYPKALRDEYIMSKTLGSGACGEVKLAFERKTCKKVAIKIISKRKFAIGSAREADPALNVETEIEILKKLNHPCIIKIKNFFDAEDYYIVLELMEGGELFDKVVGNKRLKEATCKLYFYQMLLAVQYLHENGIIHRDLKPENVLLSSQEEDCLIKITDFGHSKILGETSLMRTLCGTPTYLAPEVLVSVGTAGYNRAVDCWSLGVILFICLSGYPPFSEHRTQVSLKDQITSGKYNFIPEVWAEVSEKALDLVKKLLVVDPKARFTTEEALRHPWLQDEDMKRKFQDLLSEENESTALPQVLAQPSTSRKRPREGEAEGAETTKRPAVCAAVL
Experiment [6] has as its target Serine/threonine-protein kinase 25 (Homo sapiens) (UniProt O00506). Briefly: Inhibition of human recombinant YSK1 at 500 nM related to control ULK1.
Experiment [7] deals with T2, Serine/threonine-protein kinase Chk1 (Homo sapiens) (UniProt O14757).
T2 sequence (whole entry): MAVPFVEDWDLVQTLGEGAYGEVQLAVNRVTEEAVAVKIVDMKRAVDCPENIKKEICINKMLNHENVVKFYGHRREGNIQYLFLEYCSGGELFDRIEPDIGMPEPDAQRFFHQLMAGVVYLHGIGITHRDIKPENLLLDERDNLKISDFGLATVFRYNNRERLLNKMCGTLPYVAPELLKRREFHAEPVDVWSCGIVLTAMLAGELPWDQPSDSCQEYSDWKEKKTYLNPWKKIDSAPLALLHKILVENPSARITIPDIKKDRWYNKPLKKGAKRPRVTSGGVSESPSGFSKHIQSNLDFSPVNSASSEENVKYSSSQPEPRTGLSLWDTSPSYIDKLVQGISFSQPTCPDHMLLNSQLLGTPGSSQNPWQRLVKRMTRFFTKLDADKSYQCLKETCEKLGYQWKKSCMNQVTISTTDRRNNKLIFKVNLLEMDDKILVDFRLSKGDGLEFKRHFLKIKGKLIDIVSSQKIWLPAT
Briefly: Inhibition of human recombinant CHK1 at 500 nM in presence of ATP by radiometric assay relative to control.

Experiment [8] deals with T3, Protein kinase C epsilon type (Homo sapiens) (UniProt Q02156).
T3 sequence (whole entry): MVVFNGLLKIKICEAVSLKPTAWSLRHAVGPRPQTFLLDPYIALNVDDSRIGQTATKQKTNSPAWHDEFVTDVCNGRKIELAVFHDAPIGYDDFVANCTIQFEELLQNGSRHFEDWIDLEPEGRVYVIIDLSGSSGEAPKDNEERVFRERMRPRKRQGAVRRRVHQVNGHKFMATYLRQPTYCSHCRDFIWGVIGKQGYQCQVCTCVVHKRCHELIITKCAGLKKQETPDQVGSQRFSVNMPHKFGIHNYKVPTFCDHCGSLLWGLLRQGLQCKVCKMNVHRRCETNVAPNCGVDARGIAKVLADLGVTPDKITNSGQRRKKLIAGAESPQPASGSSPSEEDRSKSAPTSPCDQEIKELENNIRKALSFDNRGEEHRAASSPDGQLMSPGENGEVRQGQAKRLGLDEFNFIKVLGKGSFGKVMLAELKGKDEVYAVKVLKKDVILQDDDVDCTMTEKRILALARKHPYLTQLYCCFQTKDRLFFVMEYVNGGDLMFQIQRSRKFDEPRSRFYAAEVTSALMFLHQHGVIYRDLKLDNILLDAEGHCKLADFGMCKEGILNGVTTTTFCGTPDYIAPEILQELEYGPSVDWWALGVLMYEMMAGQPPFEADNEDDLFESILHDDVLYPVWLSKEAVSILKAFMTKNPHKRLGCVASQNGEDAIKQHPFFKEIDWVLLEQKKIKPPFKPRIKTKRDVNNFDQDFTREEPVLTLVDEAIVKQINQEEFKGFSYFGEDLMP
Briefly: Inhibition of human recombinant PKCe at 500 nM in presence of ATP by radiometric assay relative to control.

The target in experiment [9] is SRSF protein kinase 3 (Homo sapiens) (UniProt Q9UPE1). Briefly: Inhibition of human recombinant MSSK1 at 500 nM in presence of ATP by radiometric assay relative to control.
Sequence of SRSF protein kinase 3 (Homo sapiens) (Q9UPE1 whole entry): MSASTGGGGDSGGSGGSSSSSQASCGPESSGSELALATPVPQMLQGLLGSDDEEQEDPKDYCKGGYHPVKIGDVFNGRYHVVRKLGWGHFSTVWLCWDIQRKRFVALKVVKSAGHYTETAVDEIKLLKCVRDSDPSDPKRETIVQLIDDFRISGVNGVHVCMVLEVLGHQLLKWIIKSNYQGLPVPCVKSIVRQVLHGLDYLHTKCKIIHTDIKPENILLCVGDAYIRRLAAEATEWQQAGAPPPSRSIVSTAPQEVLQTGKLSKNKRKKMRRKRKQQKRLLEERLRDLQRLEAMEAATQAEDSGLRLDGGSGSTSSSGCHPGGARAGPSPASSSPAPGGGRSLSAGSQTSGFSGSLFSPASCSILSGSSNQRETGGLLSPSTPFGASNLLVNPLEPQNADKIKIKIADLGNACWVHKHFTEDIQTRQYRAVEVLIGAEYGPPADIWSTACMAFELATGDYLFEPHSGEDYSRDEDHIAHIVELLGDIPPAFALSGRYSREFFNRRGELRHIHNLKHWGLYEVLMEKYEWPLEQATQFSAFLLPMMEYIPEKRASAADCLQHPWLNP

This note sets out measurements from ChEMBL document CHEMBL5653631, “A Potent and Selective ULK1 Inhibitor Suppresses Autophagy and Sensitizes Cancer Cells to Nutrient Stress” (iScience, 2018).

For orientation: inhibition means how much of the control response was suppressed.

Sequence of Angiopoietin-1 receptor (Homo sapiens) (Q02763 whole entry): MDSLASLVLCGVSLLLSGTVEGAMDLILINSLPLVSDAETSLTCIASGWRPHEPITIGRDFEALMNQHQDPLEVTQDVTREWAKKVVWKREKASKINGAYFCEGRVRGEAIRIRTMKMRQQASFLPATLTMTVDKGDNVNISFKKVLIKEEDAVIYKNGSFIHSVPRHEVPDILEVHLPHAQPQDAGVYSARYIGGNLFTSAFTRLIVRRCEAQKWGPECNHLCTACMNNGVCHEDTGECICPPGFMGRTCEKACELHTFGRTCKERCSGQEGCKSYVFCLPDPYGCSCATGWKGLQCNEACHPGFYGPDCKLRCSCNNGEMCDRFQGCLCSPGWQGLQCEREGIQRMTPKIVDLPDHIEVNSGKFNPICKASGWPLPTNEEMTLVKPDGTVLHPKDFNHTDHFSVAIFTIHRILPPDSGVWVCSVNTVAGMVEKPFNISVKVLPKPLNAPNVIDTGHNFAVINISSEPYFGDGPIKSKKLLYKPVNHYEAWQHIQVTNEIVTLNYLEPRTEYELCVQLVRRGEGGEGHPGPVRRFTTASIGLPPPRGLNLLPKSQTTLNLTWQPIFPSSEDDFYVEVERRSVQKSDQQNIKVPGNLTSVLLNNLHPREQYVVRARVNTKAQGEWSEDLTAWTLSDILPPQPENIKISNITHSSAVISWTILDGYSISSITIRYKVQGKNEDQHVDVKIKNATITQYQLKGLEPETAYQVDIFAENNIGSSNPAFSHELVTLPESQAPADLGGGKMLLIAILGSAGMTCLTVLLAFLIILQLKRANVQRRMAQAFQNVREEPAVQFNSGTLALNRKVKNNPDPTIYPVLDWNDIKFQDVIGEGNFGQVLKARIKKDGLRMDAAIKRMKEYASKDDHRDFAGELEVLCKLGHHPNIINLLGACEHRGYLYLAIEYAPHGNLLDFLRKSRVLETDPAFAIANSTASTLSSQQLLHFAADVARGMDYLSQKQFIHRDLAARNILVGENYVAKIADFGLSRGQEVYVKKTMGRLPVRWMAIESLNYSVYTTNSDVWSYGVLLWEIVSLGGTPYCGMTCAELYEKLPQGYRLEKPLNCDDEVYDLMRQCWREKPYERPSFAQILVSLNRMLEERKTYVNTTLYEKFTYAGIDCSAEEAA
Sequence of Serine/threonine-protein kinase 25 (Homo sapiens) (O00506 whole entry, looked up): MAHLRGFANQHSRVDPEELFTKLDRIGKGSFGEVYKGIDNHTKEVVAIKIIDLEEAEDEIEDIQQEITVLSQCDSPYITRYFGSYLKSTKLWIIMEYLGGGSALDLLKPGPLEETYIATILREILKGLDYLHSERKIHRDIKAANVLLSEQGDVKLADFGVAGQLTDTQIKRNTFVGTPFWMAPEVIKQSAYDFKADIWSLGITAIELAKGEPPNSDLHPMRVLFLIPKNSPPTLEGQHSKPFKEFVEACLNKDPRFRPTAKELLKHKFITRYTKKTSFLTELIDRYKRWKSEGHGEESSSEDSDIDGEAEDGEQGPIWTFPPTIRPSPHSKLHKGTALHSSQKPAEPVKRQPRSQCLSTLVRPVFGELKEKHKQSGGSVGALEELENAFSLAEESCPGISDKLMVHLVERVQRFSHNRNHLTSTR

Turning to `CC(C)[C@H](NC(=O)c1cc(-c2cnn3cc(-c4ccc(OCCN5CCCCC5)cc4)cnc23)cs1)C(F)(F)F`, the fold change (FC) in experiment [1] turned out to be 0.35; in experiment [2] it was 0.49.

Turning to `O=C(N[C@@H](C1CC1)C(F)(F)F)c1cc(-c2cnn3cc(-c4ccc(F)cc4)cnc23)cs1`, the fold change (FC) in experiment [3] stood at 0. Moreover, the inhibition in experiment [4] amounted to 0%.

As for `CNC(=O)c1ccccc1Oc1nc(Nc2cc(OC)c(OC)c(OC)c2)ncc1Br`, the fold change (FC) in experiment [5] was determined as 0; in experiment [6], 0.16. The inhibition in experiment [7] amounted to 4%; in experiment [8], 0%; in [9], 15%.
